The values below come from PubChem BioAssay (NCI).

Where “and” joins values, the source holds several entries; their conditions need not be identical. Equal values may be shown once.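 Values below derive from 48-hour exposures of cells grown in 96-well plates, with endpoints linearly interpolated between the two concentrations bracketing the appropriate inhibition level. GI50 = concentration required for 50% inhibition of growth. Definition used: TGI = concentration required for complete inhibition of growth.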

Holding throughout (assay): DTP human tumour cell line panel, 48 h
Test [1] has as its system DLD-1 colon.
Test [2] deals with DMS 114 small cell lung.
For test [3], the system named is KM20L2 colon.
Test [4] deals with LXFL 529 NSCLC.
Test [5] has as its system M19-MEL melanoma.
Test [6] concerns XF 498 CNS.
In test [7] the test system is RXF-631 renal.
Test [8] concerns SNB-78 CNS.
In test [9] the test system is MDA-N.

By TGI is commonly meant the concentration giving total growth inhibition. A high value points to lower sensitivity of the cells. As usually defined, the GI50 is the concentration at which growth is held to half of that of the control.

For the compound `COc1ccc2oc(-c3ccc(OC)c(OC)c3OC)cc(=O)c2c1`, the TGI is more than 100 µM in [1]; more than 100 µM in test [2]; 63.1 µM in test [3]; more than 100 µM in [4]; more than 100 µM in test [5]; more than 100 µM in test [6].

On to `c1ccc(SC23C4C5C6C4C2C6C53)nc1` (stereo not drawn), for which the TGI in [1], in test [2], in test [3], in test [4], in test [5] and in test [7] was more than 100 µM each time. In [8], this compound had a TGI of more than 100 µM.

In the case of `Cc1nc(/C=C2\C(=O)C=Cc3ccccc32)c(O)o1`, the TGI in test [1], in [2], in test [3], in [4], in [5] and in test [8] was more than 100 µM throughout.

In the case of `CCOc1ccc(NCC2CC/C(=C\c3ccccc3OC)C2=O)cc1` (stereo not drawn), the TGI in test [1] was found to be 13.6 µM; in [2] it was 28.2 µM; in test [3], 28.4 µM; in [4] it was 6.5 µM; in test [5], 26.3 µM; in test [7], 42.5 µM. This compound also returned a TGI in test [8] of 44.3 µM.

Take `COC(=O)/C(C#N)=C(\N)C(Cl)(Cl)Cl`: the TGI in test [1] is 3.52 µM; in test [2] it was 11.1 µM; in test [3] it was more than 100 µM; in test [4] it was 9.73 µM; in [5], 6.35 µM; in test [7], 6.02 µM. Moreover, the concentration for total growth inhibition (TGI) in test [8] is 31.3 µM; in [6], 4.36 µM.

Compound `CCCCCCCCCCCCCCCCCCNC(=S)/N=C/c1c(O)c2ccccc2[nH]c1=O` registered a TGI in [9] of 35.3 µM.

In turn, `Nc1nc(SCc2ccccc2Cl)cc(C(=O)O)n1` came in with a TGI in test [9] of more than 100 µM.

Take `Cc1ccc(S(=O)(=O)OC(COC(=O)c2ccccc2)C(OS(=O)(=O)c2ccc(C)cc2)C(OS(=O)(=O)c2ccc(C)cc2)C(COC(=O)c2ccccc2)OS(=O)(=O)c2ccc(C)cc2)cc1` (stereo not drawn): the TGI in test [3], in [4], in test [5] and in test [8] was more than 100 µM each time.

For the compound `COc1cc(C(C)c2cc3c(cc2OCCNC(=O)COc2cc4c(cc2C(C)c2cc(OC)c(OC)c(OC)c2)OCO4)OCO3)cc(OC)c1OC` (stereo not drawn), the TGI in [1], in test [2], in test [3], in [4], in test [5] and in test [7] was more than 100 µM throughout.

Regarding `CCC1(OC(=O)CN)C(=O)OCc2c1cc1n(c2=O)Cc2cc3ccccc3nc2-1` (stereo not drawn), the TGI in test [1] is more than 100 µM; in [2], 0.461 µM and 1.02 µM; in test [4], 6.06 µM; in test [5] it was 0.237 µM; in test [8], more than 100 µM; in test [6] it was 0.431 µM. For the same compound, the GI50 in test [3] was 0.056 µM; in [4], 0.135 µM; in test [5], 0.0174 µM; in [9], 0.122 µM and 0.36 µM; in test [8] it was 0.53 µM; in test [6], 0.0328 µM.

As for `Cc1cc(C)c(C(=O)O)c(SSc2cc(C)cc(C)c2C(=O)O)c1`, the TGI in test [1], in test [2], in test [3], in [4], in test [5] and in test [7] was more than 100 µM throughout. The TGI in test [8] and in test [6] was more than 100 µM throughout.

For `CCOC(=O)C(Cc1ccccc1)NC(=O)c1[nH]cnc1/N=N/N(C)C` (stereo not drawn), the TGI in test [1], in test [2], in [4] and in test [5] was more than 100 µM in each case.

Take `O=C1CNC(=O)c2[nH]cnc2N1`: the TGI in test [1], in test [2], in [4], in [5], in test [7] and in [8] was more than 100 µM each time. Besides, in test [6], the TGI was more than 100 µM.

In the case of `C=CCC1(C(=O)OC(C)(C)C)C(OC)=C(C(=O)OC(C)(C)C)C2C1C(C(=O)OC(C)(C)C)=C(OC)C2(CC=C)C(=O)OC(C)(C)C` (stereo not drawn), the TGI in test [1], in test [2], in [5] and in test [6] was more than 100 µM each time.

`CC1(C)OC(=O)C(C#N)=C1C[n+]1ccccc1` had a TGI in test [9] of more than 10 µM.

On to `CC1=NOC(=O)/C1=C/c1ccc([N+](=O)[O-])cc1`, for which the TGI in test [1], in test [2], in [3], in test [7], in test [8] and in test [6] was more than 100 µM each time.

With `COC(=O)C(CC(=O)Nc1ccc(Cl)c(Cl)c1)C(=O)C(=O)Nc1ccc(Cl)c(Cl)c1` (stereo not drawn), the TGI in [2], in test [3], in [4], in [5], in test [7] and in test [8] was more than 100 µM each time.

On to `COc1ccc(C(=O)CC2=Nc3nnc(CCCCCCCc4nnc5n4C(=O)C(CC(=O)c4ccc(OC)cc4)=N5)n3C2=O)cc1`, for which the TGI in test [1], in [2], in [3], in test [4], in [5] and in test [7] was more than 100 µM each time. The compound further gave a TGI in [6] of more than 100 µM.

On to `O=S(=O)(N=NC=C1c2ccccc2N(O)c2ccccc21)c1ccc(Cl)cc1`, for which the TGI in test [1], in test [2], in test [3], in test [4], in [5] and in [7] was more than 100 µM each time. In test [8], this compound had a TGI of more than 100 µM.
